ChEMBL document CHEMBL1201862, “PubChem BioAssay data set” (2004)
Where “and” joins values, the source holds several entries; their conditions need not be identical. Equal entries are not always repeated. Calls of active or inactive are those of the source.

Legend:
[1] = target: Glyceraldehyde-3-phosphate dehydrogenase (Homo sapiens, UniProt P04406)
[2] = target: T1, Alkaline phosphatase, tissue-nonspecific isozyme (Homo sapiens, UniProt P05186); experiment: human TNAP enzyme inhibitors, SAR follow-up, biochemical, luminescent, dose response (AID 1056)
T1 sequence (P05186 whole entry): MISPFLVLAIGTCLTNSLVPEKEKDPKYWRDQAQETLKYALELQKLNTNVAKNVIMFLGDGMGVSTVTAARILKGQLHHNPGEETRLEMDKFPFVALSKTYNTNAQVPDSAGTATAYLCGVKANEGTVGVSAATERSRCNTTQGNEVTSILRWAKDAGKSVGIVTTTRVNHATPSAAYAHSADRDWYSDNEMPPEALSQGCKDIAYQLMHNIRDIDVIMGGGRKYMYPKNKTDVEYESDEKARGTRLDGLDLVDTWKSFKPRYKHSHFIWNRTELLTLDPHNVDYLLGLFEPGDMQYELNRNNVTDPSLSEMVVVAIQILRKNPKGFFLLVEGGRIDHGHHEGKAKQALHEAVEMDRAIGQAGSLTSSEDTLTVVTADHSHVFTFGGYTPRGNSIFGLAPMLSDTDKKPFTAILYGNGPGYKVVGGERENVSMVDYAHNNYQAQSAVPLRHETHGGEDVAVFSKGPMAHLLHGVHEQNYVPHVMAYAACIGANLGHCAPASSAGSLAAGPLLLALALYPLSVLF

[3] = target: DNA dC->dU-editing enzyme APOBEC-3A (Homo sapiens, UniProt P31941); experiment: Dose Response confirmation of small molecule APOBEC3A DNA Deaminase Inhibitors via a fluorescence-based single-stranded DNA deaminase assay. [Related pubchem assays (depositor defined):AID493011, AID493024]; type: functional
Chain of DNA dC->dU-editing enzyme APOBEC-3A (P31941 whole entry): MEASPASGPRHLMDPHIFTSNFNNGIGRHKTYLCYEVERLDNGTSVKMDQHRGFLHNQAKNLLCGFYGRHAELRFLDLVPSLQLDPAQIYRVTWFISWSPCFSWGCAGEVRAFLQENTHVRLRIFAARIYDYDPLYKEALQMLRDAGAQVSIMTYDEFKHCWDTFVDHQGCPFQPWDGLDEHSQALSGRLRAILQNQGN

[4] = target: DNA dC->dU-editing enzyme APOBEC-3G (Homo sapiens, UniProt Q9HC16); type: functional;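 further: Dose-response counterscreen measuring inhibition of APOBEC3G DNA deaminase activity, run while confirming APOBEC3A inhibitors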
[5] = target: Peroxisome proliferator-activated receptor gamma/Nuclear receptor coactivator 1 (Homo sapiens, UniProt P37231); experiment: TR-FRET dose response biochemical High Throughput Screening assay for agonists of the steroid receptor coactivator 1 (SRC-1) recruitment by the peroxisome proliferator-activated receptor gamma (PPAR gamma): non-selective agonists. [Related pubchem assays (depositor defined):AID1300, AID1808, AID504735, AID631]; type: protein assay
[6] = target: Peroxisome proliferator-activated receptor gamma/Nuclear receptor coactivator 2 (Homo sapiens, UniProt P37231); experiment: (§1) TR-FRET dose response biochemical High Throughput Screening assay for agonists of the steroid receptor coactivator 2 (SRC-2) recruitment by the peroxisome proliferator-activated receptor gamma (PPAR gamma): non-selective agonists. [Related pubchem assays: 1297, 1032 ]; type: functional
[7] = target: Peroxisome proliferator-activated receptor gamma/Nuclear receptor coactivator 3 (Homo sapiens, UniProt P37231); experiment: as §1, with “3 (SRC-3)” for “2 (SRC-2)”, “1301 (Confirmation screen.), 1048 (Primary screen.)]” for “1297, 1032 ]”; type: functional
[8] = target: Induced myeloid leukemia cell differentiation protein Mcl-1 (Homo sapiens, UniProt Q07820); type: functional
[9] = target: T2, Rac GTPase-activating protein 1 (Homo sapiens, UniProt Q9H0H5); experiment: MgcRacGAP GTPase-activating activity inhibitors, confirmation, biochemical, ADP Hunter fluorescence, primary and confirmatory (AID 624330); type: functional
T2 sequence (Q9H0H5 whole entry): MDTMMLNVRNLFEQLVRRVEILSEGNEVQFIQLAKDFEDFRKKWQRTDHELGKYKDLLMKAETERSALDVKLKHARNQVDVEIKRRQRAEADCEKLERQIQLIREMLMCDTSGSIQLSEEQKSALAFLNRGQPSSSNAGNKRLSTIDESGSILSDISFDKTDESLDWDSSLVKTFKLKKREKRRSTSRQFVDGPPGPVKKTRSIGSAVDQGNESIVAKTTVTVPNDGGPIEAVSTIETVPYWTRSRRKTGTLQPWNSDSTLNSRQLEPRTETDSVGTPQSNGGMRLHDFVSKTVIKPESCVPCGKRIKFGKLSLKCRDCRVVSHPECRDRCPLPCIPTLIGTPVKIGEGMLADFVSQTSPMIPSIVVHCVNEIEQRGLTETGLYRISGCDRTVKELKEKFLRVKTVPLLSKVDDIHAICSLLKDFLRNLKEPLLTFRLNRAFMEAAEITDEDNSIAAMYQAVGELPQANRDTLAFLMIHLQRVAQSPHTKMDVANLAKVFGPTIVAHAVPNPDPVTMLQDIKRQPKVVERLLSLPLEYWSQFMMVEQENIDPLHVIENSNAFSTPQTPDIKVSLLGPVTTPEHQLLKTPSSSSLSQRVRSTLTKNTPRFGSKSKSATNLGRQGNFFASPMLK

[10] = HeLa cell cytotoxicity, dose response, cytotoxicity control for MgcRacGAP inhibitor project (AID 624300); type: functional
Coagulation factor XII = target: T3, Coagulation factor XII (Homo sapiens, UniProt P00748); type: functional;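 further: activated factor XIIa alpha cleaving a fluorogenic AMC peptide substrate; inhibitor potency from loss of enzyme activity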
T3 sequence (P00748 whole entry): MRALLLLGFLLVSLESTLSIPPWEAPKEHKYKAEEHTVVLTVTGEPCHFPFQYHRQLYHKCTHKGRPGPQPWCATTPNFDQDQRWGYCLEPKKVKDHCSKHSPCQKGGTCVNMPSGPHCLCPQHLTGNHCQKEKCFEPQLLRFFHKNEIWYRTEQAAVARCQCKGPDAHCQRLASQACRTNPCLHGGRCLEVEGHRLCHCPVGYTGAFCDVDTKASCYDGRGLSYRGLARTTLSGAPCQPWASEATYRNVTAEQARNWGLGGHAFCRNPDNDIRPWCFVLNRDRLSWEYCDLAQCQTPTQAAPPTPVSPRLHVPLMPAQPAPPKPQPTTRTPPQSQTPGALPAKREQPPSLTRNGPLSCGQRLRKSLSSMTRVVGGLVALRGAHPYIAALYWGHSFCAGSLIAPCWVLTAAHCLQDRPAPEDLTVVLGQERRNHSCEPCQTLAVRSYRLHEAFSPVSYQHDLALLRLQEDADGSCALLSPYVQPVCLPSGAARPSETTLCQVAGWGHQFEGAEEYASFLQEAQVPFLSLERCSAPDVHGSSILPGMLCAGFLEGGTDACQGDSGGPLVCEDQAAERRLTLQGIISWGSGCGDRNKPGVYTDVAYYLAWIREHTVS

[11] = target: T4, Kappa-type opioid receptor (Homo sapiens, UniProt P41145); experiment: SAR analysis of small molecule agonists of the kappa opioid receptor via a luminescent beta-arrestin assay - Set 3. [Related pubchem assays (depositor defined):AID1777, AID1785, AID1786, AID1966, AID2133, AID2136, AID2284, AID2500]; type: functional
T4 sequence (P41145 whole entry): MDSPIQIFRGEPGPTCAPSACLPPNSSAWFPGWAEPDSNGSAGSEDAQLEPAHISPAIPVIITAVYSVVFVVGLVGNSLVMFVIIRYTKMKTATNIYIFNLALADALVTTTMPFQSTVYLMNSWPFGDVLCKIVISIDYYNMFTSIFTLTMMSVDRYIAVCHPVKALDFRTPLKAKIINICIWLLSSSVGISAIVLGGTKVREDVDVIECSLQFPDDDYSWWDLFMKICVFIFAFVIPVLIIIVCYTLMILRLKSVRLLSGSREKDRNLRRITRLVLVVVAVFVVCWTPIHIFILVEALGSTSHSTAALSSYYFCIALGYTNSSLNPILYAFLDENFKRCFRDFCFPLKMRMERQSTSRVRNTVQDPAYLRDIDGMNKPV

SUMO E1/E2 = SUMO E1/E2 (Homo sapiens, UniProt P63279+Q9UBE0+Q9UBT2); experiment: SAR analysis of SUMOylation using HTRF in an in-Vitro dose response assay. [Related pubchem assays (depositor defined):AID2006, AID2011, AID2018, AID2069, AID2658]; type: functional
Chain of SUMO E1/E2 (Q9UBE0 whole entry): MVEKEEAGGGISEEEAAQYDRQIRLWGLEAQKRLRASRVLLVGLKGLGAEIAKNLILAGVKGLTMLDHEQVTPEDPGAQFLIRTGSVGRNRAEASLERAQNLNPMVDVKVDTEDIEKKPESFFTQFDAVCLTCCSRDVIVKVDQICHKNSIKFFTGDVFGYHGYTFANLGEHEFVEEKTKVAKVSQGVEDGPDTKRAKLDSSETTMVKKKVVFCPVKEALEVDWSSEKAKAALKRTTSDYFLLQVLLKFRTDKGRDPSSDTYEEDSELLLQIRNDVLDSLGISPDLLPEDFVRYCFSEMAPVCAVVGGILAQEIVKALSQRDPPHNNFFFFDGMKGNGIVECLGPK
Chain of SUMO E1/E2 (Q9UBT2 whole entry): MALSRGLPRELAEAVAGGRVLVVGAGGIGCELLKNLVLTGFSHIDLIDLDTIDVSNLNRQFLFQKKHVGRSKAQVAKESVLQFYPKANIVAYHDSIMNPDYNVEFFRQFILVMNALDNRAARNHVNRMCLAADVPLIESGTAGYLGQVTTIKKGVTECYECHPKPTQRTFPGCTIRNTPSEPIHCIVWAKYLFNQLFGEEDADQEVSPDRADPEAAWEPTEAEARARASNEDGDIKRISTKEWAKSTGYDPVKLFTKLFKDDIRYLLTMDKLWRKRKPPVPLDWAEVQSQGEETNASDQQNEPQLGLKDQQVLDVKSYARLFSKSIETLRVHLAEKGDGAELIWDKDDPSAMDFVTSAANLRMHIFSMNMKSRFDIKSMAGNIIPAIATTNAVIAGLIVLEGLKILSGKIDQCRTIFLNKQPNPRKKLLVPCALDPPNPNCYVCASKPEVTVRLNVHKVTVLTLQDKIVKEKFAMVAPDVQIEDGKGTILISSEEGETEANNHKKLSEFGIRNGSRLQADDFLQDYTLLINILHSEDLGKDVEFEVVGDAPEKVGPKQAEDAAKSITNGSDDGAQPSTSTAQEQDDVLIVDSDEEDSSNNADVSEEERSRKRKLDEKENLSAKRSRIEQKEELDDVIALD
Chain of SUMO E1/E2 (P63279 whole entry): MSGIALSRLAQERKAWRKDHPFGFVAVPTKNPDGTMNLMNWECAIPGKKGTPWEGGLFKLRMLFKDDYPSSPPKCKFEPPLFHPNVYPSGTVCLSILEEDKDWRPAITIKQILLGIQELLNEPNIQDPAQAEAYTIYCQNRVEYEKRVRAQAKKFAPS

[12] = target: T5, Voltage-gated N-type calcium channel alpha-1B subunit/Amyloid beta A4 precursor protein-binding family A member 1 (Homo sapiens, UniProt Q00975+Q02410); experiment: disruptors of Mint-PDZ/N-type channel peptide interaction – biochemical, HTRF, set 2, SAR follow-up (AID 434980); type: functional
T5 sequence (Q00975 whole entry): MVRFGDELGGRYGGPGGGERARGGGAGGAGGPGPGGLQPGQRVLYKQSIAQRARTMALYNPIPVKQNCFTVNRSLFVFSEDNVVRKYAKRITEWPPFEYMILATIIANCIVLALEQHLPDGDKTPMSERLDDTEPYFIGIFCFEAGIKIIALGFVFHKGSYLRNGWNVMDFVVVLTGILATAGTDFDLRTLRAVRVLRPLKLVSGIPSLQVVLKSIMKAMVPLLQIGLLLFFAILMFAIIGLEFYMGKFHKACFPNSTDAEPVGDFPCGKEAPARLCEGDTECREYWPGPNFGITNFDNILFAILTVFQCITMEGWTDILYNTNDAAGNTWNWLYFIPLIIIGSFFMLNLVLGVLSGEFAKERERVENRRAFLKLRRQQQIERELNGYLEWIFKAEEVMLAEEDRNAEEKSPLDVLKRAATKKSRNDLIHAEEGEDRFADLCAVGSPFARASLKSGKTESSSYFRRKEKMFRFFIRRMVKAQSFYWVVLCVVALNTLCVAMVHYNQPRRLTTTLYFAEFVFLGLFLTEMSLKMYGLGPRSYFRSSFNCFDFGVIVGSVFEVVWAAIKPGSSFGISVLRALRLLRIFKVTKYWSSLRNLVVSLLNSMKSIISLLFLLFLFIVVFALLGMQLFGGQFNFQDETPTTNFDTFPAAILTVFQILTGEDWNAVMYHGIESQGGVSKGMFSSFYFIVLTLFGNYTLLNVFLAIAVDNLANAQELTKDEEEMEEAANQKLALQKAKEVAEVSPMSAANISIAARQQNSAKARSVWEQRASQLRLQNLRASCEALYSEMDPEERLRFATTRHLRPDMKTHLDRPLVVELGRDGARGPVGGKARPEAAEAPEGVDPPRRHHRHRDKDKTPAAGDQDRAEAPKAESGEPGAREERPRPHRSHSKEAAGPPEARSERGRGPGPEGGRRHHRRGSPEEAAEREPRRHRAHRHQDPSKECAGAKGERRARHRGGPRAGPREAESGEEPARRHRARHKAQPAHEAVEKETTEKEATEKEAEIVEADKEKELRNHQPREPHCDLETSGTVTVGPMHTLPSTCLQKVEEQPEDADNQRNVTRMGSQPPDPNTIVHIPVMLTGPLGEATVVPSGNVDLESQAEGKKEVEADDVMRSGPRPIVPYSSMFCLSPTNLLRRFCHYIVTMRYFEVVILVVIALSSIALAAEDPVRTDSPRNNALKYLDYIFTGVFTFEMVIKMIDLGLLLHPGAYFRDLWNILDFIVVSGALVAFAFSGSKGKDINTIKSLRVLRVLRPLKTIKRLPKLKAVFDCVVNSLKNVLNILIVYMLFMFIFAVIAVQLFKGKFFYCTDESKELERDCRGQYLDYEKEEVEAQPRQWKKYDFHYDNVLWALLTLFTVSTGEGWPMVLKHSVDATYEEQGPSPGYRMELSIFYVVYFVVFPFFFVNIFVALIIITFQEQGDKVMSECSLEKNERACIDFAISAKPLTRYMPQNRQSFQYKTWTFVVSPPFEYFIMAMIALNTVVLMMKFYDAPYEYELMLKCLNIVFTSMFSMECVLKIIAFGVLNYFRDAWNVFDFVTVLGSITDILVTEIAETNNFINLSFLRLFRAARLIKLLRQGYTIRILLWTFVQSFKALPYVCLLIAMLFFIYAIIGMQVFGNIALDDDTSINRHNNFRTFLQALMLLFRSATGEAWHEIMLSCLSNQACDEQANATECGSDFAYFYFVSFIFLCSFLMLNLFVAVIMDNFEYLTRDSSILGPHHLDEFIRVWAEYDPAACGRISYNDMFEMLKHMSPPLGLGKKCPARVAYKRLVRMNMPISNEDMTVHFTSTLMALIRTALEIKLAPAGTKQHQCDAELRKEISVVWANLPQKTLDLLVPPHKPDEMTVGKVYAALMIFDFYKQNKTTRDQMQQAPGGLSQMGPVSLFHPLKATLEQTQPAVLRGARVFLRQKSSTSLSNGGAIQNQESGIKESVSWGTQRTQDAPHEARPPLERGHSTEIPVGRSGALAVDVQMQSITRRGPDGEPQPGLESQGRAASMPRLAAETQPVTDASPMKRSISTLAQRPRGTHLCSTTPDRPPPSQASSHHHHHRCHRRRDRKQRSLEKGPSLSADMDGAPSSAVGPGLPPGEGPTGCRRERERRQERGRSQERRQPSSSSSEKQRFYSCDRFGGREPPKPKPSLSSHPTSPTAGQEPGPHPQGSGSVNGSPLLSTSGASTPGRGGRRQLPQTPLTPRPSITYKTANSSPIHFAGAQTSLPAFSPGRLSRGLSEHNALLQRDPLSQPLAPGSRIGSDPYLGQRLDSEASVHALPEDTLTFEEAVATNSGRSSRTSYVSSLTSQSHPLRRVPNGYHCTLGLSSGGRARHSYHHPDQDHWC
T5 sequence (Q02410 whole entry): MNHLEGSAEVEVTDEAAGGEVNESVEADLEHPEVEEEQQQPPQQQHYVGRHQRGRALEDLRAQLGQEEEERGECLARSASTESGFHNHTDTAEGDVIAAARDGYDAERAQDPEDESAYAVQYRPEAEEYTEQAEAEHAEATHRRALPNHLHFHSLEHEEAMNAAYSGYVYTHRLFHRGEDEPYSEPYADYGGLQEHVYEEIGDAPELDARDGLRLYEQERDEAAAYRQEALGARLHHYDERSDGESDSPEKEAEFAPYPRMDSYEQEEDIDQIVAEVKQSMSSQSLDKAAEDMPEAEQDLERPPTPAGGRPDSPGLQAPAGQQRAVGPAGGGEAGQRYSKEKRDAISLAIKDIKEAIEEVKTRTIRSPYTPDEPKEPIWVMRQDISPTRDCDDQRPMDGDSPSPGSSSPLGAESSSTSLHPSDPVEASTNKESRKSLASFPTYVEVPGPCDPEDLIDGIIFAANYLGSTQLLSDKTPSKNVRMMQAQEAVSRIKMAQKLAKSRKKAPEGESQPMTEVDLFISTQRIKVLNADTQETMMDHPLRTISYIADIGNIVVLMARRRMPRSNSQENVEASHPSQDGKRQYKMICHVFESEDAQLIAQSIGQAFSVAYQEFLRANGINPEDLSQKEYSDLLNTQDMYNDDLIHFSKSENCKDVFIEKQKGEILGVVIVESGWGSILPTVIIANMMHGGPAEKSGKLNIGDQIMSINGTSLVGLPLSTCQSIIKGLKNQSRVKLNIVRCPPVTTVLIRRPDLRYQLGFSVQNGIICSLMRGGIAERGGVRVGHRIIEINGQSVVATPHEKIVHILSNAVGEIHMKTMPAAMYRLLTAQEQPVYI

[13] = target: T5, Voltage-gated N-type calcium channel alpha-1B subunit/Amyloid beta A4 precursor protein-binding family A member 1; experiment: disruptors of Mint-PDZ/N-type channel peptide interaction – biochemical, HTRF, SAR follow-up (AID 2489); type: functional
[14] = Luminescence Cell-Based Dose Confirmation HTS to Identify Activators of 5'UTR Stem-Loop Driven Alpha-Synuclein mRNA Translation in H4 Neuroglioblastoma Cells. [Related pubchem assays: 1829 (Project Summary), 1814 (Primary HTS)]; type: functional
H4 = experiment: Luminescence Cell-Based Dose Response HTS to Identify Activators of 5'UTR Stem-Loop Driven Prion Protein mRNA Translation in H4 Neuroglioblastoma Cells. [Related pubchem assays: 1829 (Project Summary), 1814 (Primary HTS)]; type: functional; details: Homo sapiens
[15] = Luminescence Cell-Based Dose Response HTS to Identify Activators of Luciferase Translation or Activity in H4 […] Cells. [Related pubchem assays: 1829 (Project Summary), 1814 (Primary HTS)]; type: functional
[16] = C. albicans growth with fluconazole, confirmation, fluorescence, retest (AID 2467); type: functional, cell-based
[17] = inhibitors of intracellular T. cruzi replication, confirmation, NIH3T3 host cells, beta-gal luminescence (AID 2044); type: functional, cell-based;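 further: intracellular parasites grown in NIH/3T3 mouse fibroblasts as host cells; luminescent beta-galactosidase reporter signal from transgenic T. cruzi replicating inside host cells; inhibitors lower the luminescence signal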
[18] = target: T4, Kappa-type opioid receptor; type: functional
[19] = Counterscreen for AddAB inhibitors: absorbance-based bacterial cell-based high throughput dose response assay for inhibitors of bacterial viability. [Related pubchem assays (depositor defined):AID435030, AID449728, AID449731, AID488942, AID488955, AID488956]; type: functional
Streptococcus = experiment: Group A Streptococcus viability loss, dose response, counter-screen for streptokinase expression inhibitor project, luminescence, BacTiterGlo (AID 1915); type: functional, organism-based;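 further: potency for reduction of bacterial viability or growth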
[20] = system: Streptococcus sp. 'group A'; experiment: growth inhibition of control SK(-) GAS strain, dose response, counter-screen for streptokinase expression inhibitor project, luminescence, kanamycin, BacTiterGlo, confirmation (AID 1900); type: functional, organism-based
[21] = target: T4, Kappa-type opioid receptor; type: functional; remark: listed apart in the source
[22] = cytotoxicity toward NIH3T3 fibroblasts, dose response, counter-screen, cell-based, ATP luminescence, mouse fibroblasts (AID 2010); type: functional;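 further: cells exposed to compound for about 90 hours before reading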
Beta-galactosidase = Beta-galactosidase (Escherichia coli, UniProt Q8VNN2); type: functional
[23] = target: ATP-dependent molecular chaperone HSP82 (Candida albicans (strain WO-1) (Yeast), UniProt C4YTQ8); experiment: loss of DOC-induced GRE-beta-galactosidase reporter signal, dose response, Hsp90 inhibitor project, S. cerevisiae, luminescence (AID 2400); type: functional, cell-based;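 further: beta-galactosidase luminescence from glucocorticoid response element reporter as proxy for Hsp90 function; inhibitor potency where signal loss means Hsp90 inhibition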
Exodeoxyribonuclease V = Exodeoxyribonuclease V (Escherichia coli (strain K12), UniProt P04993+P07648+P08394); experiment: E. coli RecBCD inhibitors, dose response, counter-screen for AddAB inhibitor project, absorbance, V66 E. coli, mutant T4 phage (AID 492957); type: functional, cell-based, Escherichia coli str. K-12 substr. MG1655
[24] = NIH-3T3 fibroblast cytotoxicity, dose response, cytotoxicity control, cell-based, fluorescence, Alamar Blue, secondary assay (AID 2327); type: functional;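 further: NIH-3T3 mouse fibroblasts cultured with fluconazole at 8 µg/mL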
INS1 = experiment: beta cell apoptosis inhibitors, cytokine rescue, dose response, luminescence, retest (AID 449756); type: functional, cell-based; details: Rattus norvegicus;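 further: cell death triggered by IL-1 beta plus TNF-alpha plus IFN-gamma mixture; protective hits raise ATP signal compared with cytokine alone wells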
[25] = target: T6, Serine/threonine-protein phosphatase (Candida dubliniensis (strain CD36 / CBS 7987 / NCPF 3949 / NRRLY-17841) (Yeast), UniProt B9W6M3); experiment: calcineurin pathway inhibitors in yeast reporter, dose response, S. cerevisiae, CDRE-lacZ, luminescence, secondary (AID 2388); type: functional, cell-based;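 further: yeast reporter cells carrying a calcineurin-responsive lacZ construct stimulated with calcium chloride; luminescent beta-galactosidase reporter signal in whole cells rather than isolated phosphatase activity; potency for inhibition where a drop in reporter signal means calcineurin blockade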
T6 sequence (B9W6M3 whole entry): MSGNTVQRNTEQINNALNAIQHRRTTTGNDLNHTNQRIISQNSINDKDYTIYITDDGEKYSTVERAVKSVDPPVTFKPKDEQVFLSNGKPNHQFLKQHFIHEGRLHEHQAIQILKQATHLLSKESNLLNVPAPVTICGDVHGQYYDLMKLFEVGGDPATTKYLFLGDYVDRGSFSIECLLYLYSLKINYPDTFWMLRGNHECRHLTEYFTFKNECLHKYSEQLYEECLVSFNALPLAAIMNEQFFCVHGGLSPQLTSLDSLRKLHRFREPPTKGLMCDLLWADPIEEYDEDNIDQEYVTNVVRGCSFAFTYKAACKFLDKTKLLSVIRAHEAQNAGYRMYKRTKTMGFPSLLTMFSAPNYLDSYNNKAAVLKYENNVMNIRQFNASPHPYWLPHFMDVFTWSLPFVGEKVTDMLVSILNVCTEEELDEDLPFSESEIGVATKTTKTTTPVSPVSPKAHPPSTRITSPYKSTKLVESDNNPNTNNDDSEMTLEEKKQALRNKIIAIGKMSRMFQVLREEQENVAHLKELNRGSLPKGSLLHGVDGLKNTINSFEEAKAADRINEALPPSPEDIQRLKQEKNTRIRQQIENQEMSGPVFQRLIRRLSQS

## O=C1c2c(Cl)c(Cl)c(Cl)c(Cl)c2C(=O)N1c1nc(Cc2ccccc2)n[nH]1
[1]
  IC50: > 100 µM (not active)
[2]
  IC50: > 100 µM (inactive)

## CCCC[N@+]12CC[C@H](CC1)C(=C(c1ccccc1)c1ccccc1)C2
[3]
  IC50: 2.16 µM (active)
[4]
  IC50: 2.19 µM (active)

## COC(=O)CNc1nnc(S)nc1O
[5]
  EC50: 1.61 µM (active)
[6]
  EC50: 2.15 µM (active)
[7]
  EC50: 53.6 µM (not active)

## O=C1NC(=S)N(C2CC2)C(=O)/C1=C/c1ccc2c(c1)CCN2CCCCl
[8]
  IC50: 2.61 µM (active)
[9]
  IC50: 95.6 µM (active)
[10]
  CC50: 85.4 µM (active)
Coagulation factor XII
  IC50: > 50 µM (inactive)

## COC(=O)/C(=C/Nc1ccccc1)[N+](=O)[O-]
Coagulation factor XII
  IC50: > 50 µM (inactive)

## O=C(c1ccccn1)N(Cc1cc2cc(Cl)ccc2[nH]c1=O)CC1CC1
[11]
  EC50: > 20 µM (inactive)

## COc1ccccc1NC(=O)COC(=O)c1cc(-c2ccco2)nc2ccccc12
SUMO E1/E2
  IC50: 16 µM (active) and 56.7 µM (active)
[12]
  IC50: 6.66 µM (active) and 12.5 µM (active)
[13]
  IC50: 21.5 µM (active) and > 56.8 µM (inactive)

## COc1ccc(CNC(=O)COC(=O)c2cc(-c3ccco3)nc3ccccc23)c(OC)c1
SUMO E1/E2
  IC50: 14.7 µM (active)
[12]
  IC50: 11.1 µM (active)
[13]
  IC50: 23 µM (active)

## CC(C)(C)C(=O)c1cn(CC(=O)NCc2ccco2)c2ccccc12
[14]
  EC50: 14.9 µM (active)
[3]
  IC50: 3.56 µM (active)
H4
  EC50: 13.2 µM (active)
[15]
  EC50: 15.9 µM (active)
[4]
  IC50: 4.75 µM (active)

## Oc1ccc(N=Nc2ccc3c(c2)OCCO3)c2ncccc12
[16]
  EC50: 0.872 µM (active)
[17]
  EC50: 0.91 µM (active)
[18]
  IC50: 4.93 µM (active)
[19]
  IC50: > 119 µM (inactive)
Streptococcus
  EC50: 2.27 µM (active)
[20]
  EC50: 0.682 µM (active)
[21]
  IC50: > 32 µM
[22]
  EC50: 4.43 µM (active)
Beta-galactosidase
  EC50: 25.3 µM (active)
[23]
  EC50: 11.7 µM (active)
Exodeoxyribonuclease V
  IC50: > 119 µM (inactive)
[24]
  EC50: > 150 µM (inconclusive)
INS1
  AC50: 2.32 µM (active)
[25]
  EC50: > 180 µM (inactive)
